# Experimental data taken from ChEMBL document CHEMBL2074345, “Expression cloning and characterization of a novel multispecific organic anion transporter” (J Biol Chem, 1997).
# Key:
# [1] = molecular target: T1, Solute carrier family 22 member 6 (Rattus norvegicus, UniProt O35956); assay: TP_TRANSPORTER: inhibition of PAH uptake (PAH: 2 uM, Valproic acid; 2000 uM) in Xenopus laevis oocytes; format: functional, cell-based, Oocyte; details: probe PAH (2 uM)
# T1 sequence (O35956 whole entry): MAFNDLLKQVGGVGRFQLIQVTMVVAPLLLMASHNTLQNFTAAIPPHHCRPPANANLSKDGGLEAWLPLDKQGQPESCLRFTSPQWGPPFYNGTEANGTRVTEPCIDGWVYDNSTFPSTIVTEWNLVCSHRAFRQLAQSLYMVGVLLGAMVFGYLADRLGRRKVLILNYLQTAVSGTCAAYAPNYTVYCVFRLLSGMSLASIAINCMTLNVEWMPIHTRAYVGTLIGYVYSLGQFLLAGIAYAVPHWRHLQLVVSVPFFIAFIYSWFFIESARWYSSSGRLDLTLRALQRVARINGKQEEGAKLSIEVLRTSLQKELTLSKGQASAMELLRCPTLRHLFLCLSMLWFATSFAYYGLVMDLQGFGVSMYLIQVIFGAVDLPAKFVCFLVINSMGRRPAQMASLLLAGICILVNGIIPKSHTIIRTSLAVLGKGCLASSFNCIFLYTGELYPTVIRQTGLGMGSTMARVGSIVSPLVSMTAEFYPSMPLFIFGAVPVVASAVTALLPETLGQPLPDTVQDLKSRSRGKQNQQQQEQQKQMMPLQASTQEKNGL
# [2] = molecular target: T1, Solute carrier family 22 member 6; assay: TP_TRANSPORTER: uptake in Xenopus laevis oocytes; format: functional, cell-based; details: oocyte
# [3] = molecular target: T1, Solute carrier family 22 member 6; assay: TP_TRANSPORTER: inhibition of PAH uptake (PAH: 2 uM, Ethacrynic acid; 2000 uM) in Xenopus laevis oocytes; format: functional, cell-based, Oocyte; details: probe PAH (2 uM)
# [4] = molecular target: T1, Solute carrier family 22 member 6; assay: TP_TRANSPORTER: inhibition of PAH uptake (PAH: 2 uM, Nalidixate; 2000 uM) in Xenopus laevis oocytes; format: functional, cell-based, Oocyte; details: probe PAH (2 uM)
SMILES,Activity [2],further results
CCCC(CCC)C(=O)O [VALPROIC ACID],,inhibition at 2000 µM [1]: > 85%
O=c1[nH]c(=O)c2[nH]c(=O)[nH]c2[nH]1 [URIC ACID],substrate [+],
Nc1nc2c(ncn2[C@@H]2O[C@@H]3COP(=O)(O)O[C@H]3[C@H]2O)c(=O)[nH]1,substrate [+],
CC[N+](CC)(CC)CC [TETRYLAMMONIUM],is not a substrate [-],
C=C(CC)C(=O)c1ccc(OCC(=O)O)c(Cl)c1Cl [ETHACRYNIC ACID],,inhibition at 2000 µM [3]: > 85%
CCn1cc(C(=O)O)c(=O)c2ccc(C)nc21 [NALIDIXIC ACID],,inhibition at 2000 µM [4]: > 85%
O=C(O)CCC(=O)C(=O)O [ALPHA-KETOGLUTARIC ACID],substrate [+],
